From patent publication US20070087988A1, “Hematopoietic progenitor kinase 1 for modulation of an immune response” (New York University, priority 2005, published 2007) come the findings set out here.

Experiment [1] deals with T cells. In words: IL-2 production by ELISA of T cell supernatants. Type of experiment: cell-based, mouse. The procedure: Supernatants from the proliferation assay were collected for ELISA prior to addition of ^3H-thymidine. The protocol used for ELISA followed the instructions from BD Pharmingen.
Supernatants from the proliferation assay were collected for ELISA prior to addition of ^3H thymidine. For profiling experiments, supernatants were collected as above, with variable time points. […] Cells were then washed with PBS, re-seeded in fresh medium and stimulated with 2 μg/ml plate bound anti-CD3 and 1 μg/ml soluble anti-CD28 for eight hours and supernatants were collected for analysis. Protocol used for ELISA follows BD Pharmingen instructions.
(In general: An ELISA detects its analyte on a solid surface through an enzyme-linked reagent.)

Experiment [2] deals with T cells. Put plainly: FACS of TCR-stimulated T cells: Foxp3 expression and side-scatter profile. Format: cell-based, mouse. An excerpt: This is due in part to the fact that HPK^−/− T cells produce more IL-2. However, other factors may play a role in the increased percentage of cells expressing CD25. To determine whether regulatory T cell (Treg) transcription factor, Foxp3, was a factor, the expression of […] in HPK^−/− cells was examined in this population. It has been shown that PGE2 induces the expression of Foxp3 in both human and mouse T cells. Because of the inhibitory nature of these T cell subsets, there was a question of whether the conditions of stimulation generated fewer Tregs in the HPK1^−/− culture, as this might explain the enhanced functionality of these T cells.
However, a decrease was detected in the number of cells in the side-scatter profile of wild type T cells exposed to PGE2, indicating a decrease in cell viability. […] Indeed, when these cells were stained for annexin V to determine the amount of apoptosis, PGE2 did increase the number of wild type cells undergoing apoptosis by over 75%, compared to 47% in cells not treated with PGE2.

The test system of experiment [3] is T cells. Put plainly: Apoptosis of TCR-stimulated T cells, annexin V / 7AAD staining. Type of experiment: cell-based, mouse.
The next experiment relates to HPK1. In words: HPK1 IVK assay in primary splenocytes / T lymphocytes. Particulars: primary T lymphocytes (C57BL/6 splenocytes), 10 nM PGE2, 5 min. Format: cell-based, mouse. The procedure:
Splenocytes from wild type C57BL/6 were harvested, lysed with RBC lysis buffer (Sigma) and stimulated with 1 μg/ml plate bound anti-CD3 and anti-CD28 or 10 nM PGE2 alone (Calbiochem) for 5 min. at 37° C. Whole cell lysates were subjected to immunoprecipitation with anti-HPK1 antibodies #5 and #6, then subjected to IVK as described in Kiefer et al. (1996, EMBO J. 15:7013-7025). Anti-HPK1 antibody #2 was used as a blotting antibody.
Splenocytes from wild type C57BL/6 were harvested, lysed with RBC lysis buffer (Sigma) and stimulated with 1 μg/ml plate bound anti-CD3 and 1 μg/ml soluble anti-CD28 or with 10 nM PGE2 (Calbiochem) for 5 min. at 37° C. Whole cell lysates were subjected to immunoprecipitation with anti-HPK1 antibodies #5 and #6 and then subjected to IVK as described (1). Anti-HPK1 antibody #2 was used as a blotting antibody.

The test system of experiment [4] is T cells. Put plainly: Mixed leukocyte reaction (MLR) T cell proliferation, 3H-thymidine. Format: cell-based, mouse. Particulars: MLR with LPS-matured BMDCs, addition of PGE2. The procedure:
MLR was performed as described in Sallusto et al. (1994, J. Exp. Med. 179:1009-1118) with minor modifications. Naïve T cells from an allogeneic SJL mouse were purified using CD62L magnetic beads (Milentyi Biotech, Inc., CA). In a 96-well round bottom plate, T cells (1×10^5) were used as responders and incubated with HPK1^−/− and wild type, immature or LPS-matured bone marrow derived dendritic cells (BMDCs) as stimulators. Naïve T cells plus 10 μg/ml ConA were used as a positive control.
In these experiments, T cells were purified and subjected to a mixed leukocyte reaction (MLR) with wild type allogeneic BMDCs in the presence or absence of PGE2. […] To assess this, the same study was repeated under conditions where the magnitude of the MLR response was similar in the two cell types by manipulating the T cell to DC ratio. […] Similar resistance to PGE2 was observed when HPK1^−/− T cells were stimulated by T cell receptor activation with anti-CD3- and anti-CD28-mediated crosslinking in the presence of PGE2 (FIG. 20B).

The next experiment deals with tyrosine phosphorylation. Put plainly: Anti-phosphotyrosine immunoblotting of Jurkat lysates and HPK1 immunoprecipitates. Type of experiment: cell-based, human. Particulars: 10 pM PGE2. The procedure: Cells were lysed in a buffer containing 1% Nonidet P-40 (NP-40) and 50 mM Tris, pH 7.6, 150 mM NaCl, 1 mM […], 10 mM NaF, 10 mM sodium pyrophosphate, 10 μg/ml each of aprotinin and leupeptin, and 2 mM phenylmethylsulfonyl fluoride (PMSF). The lysates were pre-cleared with protein A-Sepharose™ and subsequently, proteins were immunoprecipitated with either 2 μg of anti-Crk antibody or an equal amount of normal rabbit Ig by incubation at 4° C. for two hours. The beads were washed with 0.1% NP-40 in immunoprecipitation wash buffer (150 mM NaCl, 20 mM HEPES, pH 7.4, 10% glycerol, 1 mM […], 5 mM NaF, and 10 μg/ml each of aprotinin and leupeptin), and the bead-bound proteins were separated by SDS-PAGE. The proteins were transferred to a polyvinylidene fluoride (PVDF) membrane, immunoblotted with the indicated antibodies and developed by the enhanced chemiluminescence (ECL) system (Amersham Corp., Arlington Heights, Ill.).
It has been reported that binding of PGE2 to its GPCR leads to rapid activation of HPK1 kinase activity (Sawasdikosol et al., 2003, Blood 101:3687). […] First, it was assessed whether PGE2 stimulation would induce general tyrosine phosphorylation in the Jurkat T cell line was examined. […]
A general note: Immunoblotting shows a protein as a band on a membrane.

[5] abbreviates: Example 4, ELISA, addition of PGE2.
The mark [6] stands for this setting: Example 7, 3 day TCR stimulated cells, ELISA, 1 nM PGE2.

As for `CCCCC[C@H](O)/C=C/[C@H]1[C@H](O)CC(=O)[C@@H]1C/C=C\CCCC(=O)O` [PGE2, prostaglandin E2], in the experiment on T cells [1] (setting [5]), the “percentage of IL-2 inhibition, HPK1−/− T cells” value is about 30% and the “percentage of IL-2 inhibition, wild type T cells” value is given as about 84%. In the experiment on T cells [1] (setting [6]), the “inhibition of IL-2 production, HPK1−/− T cells” value is on record as about 26% and the “inhibition of IL-2 production, wild type cells” value was about 88%. Besides, the Foxp3 expression result in the experiment on T cells [2] (HPK+/+ or HPK−/− cells, TCR crosslinking 3 days, with versus without PGE2) was “did not induce a higher Foxp3 expression”. Besides, the “number of cells in the side-scatter profile (cell viability), wild type T cells” value in the experiment with T cells [2] (exposed to PGE2) is reported as “decrease”. Besides, the “pattern of side-scatter, HPK1−/− T cells” value in the experiment on T cells [2] (with or without PGE2) was “no difference”. The “wild type cells undergoing apoptosis (annexin V)” value in the experiment on T cells [3] (three days of TCR stimulation with PGE2, 47% in cells not treated with PGE2) was “over 75%”. Moreover, the “rate of HPK1−/− T cell apoptosis” value with T cells [3] (three days of TCR stimulation, addition of PGE2) is reported as “did not significantly increase”. Besides, the “increase in HPK1 kinase activity” value in the experiment with HPK1 is “three-fold”. For the same compound, in the experiment on T cells [4], the “inhibition of proliferation, HPK1−/− T cells, MLR” value is about 25% and the “inhibition of proliferation, wild type T cells, MLR” value is about 90%. The “global tyrosine phosphorylation level” value in the experiment with tyrosine phosphorylation (Jurkat whole cell lysates) was “no detectable change”. For the same compound, in the experiment with tyrosine phosphorylation (immunoprecipitated HPK1, Jurkat), the “tyrosine phosphorylation of HPK1” value was “did not induce detectable tyrosine phosphorylation”.
